Experimental findings from patent US20230141034A1, “ADAMANTANE-1-CARBONYL THIOUREA, AS P2X RECEPTOR ANTAGONIST” (COMSATS UNIVERSITY ISLAMABAD, priority 2021, published 2023) are described below.

The structures appear in SMILES notation.

For one data set, the target named is T1, h-P2X2 (Homo sapiens, UniProt Q9UBL9).
T1 sequence (Q9UBL9 1-471): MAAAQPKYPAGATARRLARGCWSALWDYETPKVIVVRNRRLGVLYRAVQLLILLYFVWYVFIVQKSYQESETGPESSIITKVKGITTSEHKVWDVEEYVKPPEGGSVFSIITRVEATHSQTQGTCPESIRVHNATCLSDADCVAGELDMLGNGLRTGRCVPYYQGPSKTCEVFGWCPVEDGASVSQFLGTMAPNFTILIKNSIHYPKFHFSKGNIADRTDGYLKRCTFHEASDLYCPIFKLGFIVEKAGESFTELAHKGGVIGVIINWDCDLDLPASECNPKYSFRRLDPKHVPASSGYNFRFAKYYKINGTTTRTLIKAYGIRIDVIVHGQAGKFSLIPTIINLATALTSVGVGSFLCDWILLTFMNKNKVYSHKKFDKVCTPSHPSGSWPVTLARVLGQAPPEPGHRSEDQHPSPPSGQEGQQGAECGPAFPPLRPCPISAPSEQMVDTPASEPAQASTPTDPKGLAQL
The experiment in a line: Ca2+ flux assay h-P2X2. The note with it: for inhibition at 50 µM: read-out: h-P2X2 % Inhibition. Background: Calcium assays in cells follow changes in intracellular calcium, usually with a dye or a luminescent sensor.

The target in data set [1] is T2, h-P2X7 (Homo sapiens, UniProt Q99572).
T2 sequence (Q99572 1-595): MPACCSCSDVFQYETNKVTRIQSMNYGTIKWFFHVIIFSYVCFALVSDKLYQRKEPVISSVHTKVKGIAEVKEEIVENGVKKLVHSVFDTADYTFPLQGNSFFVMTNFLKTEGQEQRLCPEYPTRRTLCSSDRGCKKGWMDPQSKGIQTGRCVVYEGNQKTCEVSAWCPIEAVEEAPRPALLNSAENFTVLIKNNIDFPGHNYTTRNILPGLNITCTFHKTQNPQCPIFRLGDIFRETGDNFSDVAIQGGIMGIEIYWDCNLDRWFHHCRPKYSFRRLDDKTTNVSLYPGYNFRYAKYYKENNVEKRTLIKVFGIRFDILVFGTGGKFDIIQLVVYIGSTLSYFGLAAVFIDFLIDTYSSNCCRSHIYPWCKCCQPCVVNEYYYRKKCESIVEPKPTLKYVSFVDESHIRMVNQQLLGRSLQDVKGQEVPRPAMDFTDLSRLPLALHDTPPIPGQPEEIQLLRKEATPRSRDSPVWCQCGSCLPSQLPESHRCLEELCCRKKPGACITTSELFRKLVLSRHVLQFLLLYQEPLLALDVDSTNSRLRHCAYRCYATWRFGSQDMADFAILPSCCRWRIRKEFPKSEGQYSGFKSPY
The experiment in a line: Ca2+ flux assay h-P2X7. To be noted: for IC50: read-out: h-P2X7 IC50 ± SEM, Ca2+ flux, n = 3.
Procedure: (§5) Compounds were initially analyzed at a final concentration of about 50 μM and percentage of inhibition was calculated.
(§6) Calcium Mobilization Assay to Measure P2X Receptors Response Cell Culture: P2X receptors functions can be analyzed from ATP-induced increase in cytosolic Ca^2+ concentration. Two Ca^2+ chelating dyes, Fura-2 AM and Fluo-4 AM can be used to determine the intracellular Ca^2+ concentration through a fluorescent imaging micro-titer plate reader (BMG Labtech: FLUOstar Galaxy®). Non-transfected human 1321N1 astrocytoma cells, as well as P2X receptors transfected human 1321N1 astrocytoma cells will be cultured in T-75 cm^2 cell culture flask having appropriate cell culture growth media; Dulbecco's Modified Eagle's medium (DMEM) supplemented with 10% fetal bovine serum (FBS), 75 μg/mL of Hygromycin B or human P2X receptors transfected cell lines and 1% pen-strep (antibiotics). Cells will be incubated at 37° C. in 5% CO2 incubator until 80 to 90% cell confluency will be achieved. Cells will be maintained in an exponential growth phase throughout the experiment and closely monitored for contamination.
Measurement of Ca^2+ Flux
(§7) When 1321N1 cells will reach 80 to 90% of confluency, cells will be harvested from T-75 cm^2 flask by trypsinization. After washing the cells with phosphate buffer saline (PBS), cells will be seeded at a density of 20,000 cells/well in black, clear bottom, poly-D-lysine coated 96 well plate. After 16 to 24 h, cell culture media will be removed and add Hank's balanced salt solution (HBSS) containing 3 μM Ca^2+ chelating dyes Fura-2 AM or Fluo-4 AM. After 1 h of incubation at 23° C., the loading dye solution will be removed, and added seven to eight dilutions of test compounds in triplicate format. ATP (at a concentration value of EC80) or buffer will be added and measured the excitation and emission at 340/520 nm and 380/520 nm through FLUOStar Galaxy®. Assay volume for the experiment will be 200 μL. IC50 and EC50 values will be calculated by PRISM 5.0 (GrapgPad, San Diego, Calif., USA) through non-linear regression analysis.

The test system of data set [2] is human 1321N1 Astrocytoma cell line. The experiment in a line: MTT cytotoxicity assay, human 1321N1 astrocytoma cell line. Type of data set: cell-based. To be noted: final concentration of 50 μM. The method, then: (§1) Cellular safety profiling of adamantane thioureas were done through MTT assay. All compounds were analyzed for toxicity at final concentration of 50 μM. […] Toxicity was determined against two cancer cell lines including human 1321N1 Astrocytoma cell line, HeLa cell line and a normal HEK-293 cell line.
(§2) c. Cell Viability Assay (MTT Assay)
(§3) After 24 h of incubation at 37° C. in CO2 incubator, culture media will be replaced with serum-free media along with test compounds and re-incubate. After 24 h, media will be removed and add 100 μL of MTT reagent (0.5-5 mg/mL) and will be incubated for a further 4 h, at 37° C. Absorbance will be measured at 570 and 630 nm to calculate cell viability.
(In general: Formazan colour is commonly taken as a measure of viable cells.)

The next data set deals with HeLa cell line. The experiment in a line: MTT cytotoxicity assay, HeLa cell line. It is filed as cell-based. To be noted: final concentration of 50 μM. The method, then: as §1, §2, §3
A further data set deals with HEK-293 cell line. The experiment in a line: MTT cytotoxicity assay, HEK-293 cell line. The note with it: final concentration of 50 μM. Type of data set: cell-based. The method, then: as §1, §2, §3
Data set [3] deals with T3, h-P2X4 (Homo sapiens, UniProt Q99571).
T3 sequence (Q99571 1-388): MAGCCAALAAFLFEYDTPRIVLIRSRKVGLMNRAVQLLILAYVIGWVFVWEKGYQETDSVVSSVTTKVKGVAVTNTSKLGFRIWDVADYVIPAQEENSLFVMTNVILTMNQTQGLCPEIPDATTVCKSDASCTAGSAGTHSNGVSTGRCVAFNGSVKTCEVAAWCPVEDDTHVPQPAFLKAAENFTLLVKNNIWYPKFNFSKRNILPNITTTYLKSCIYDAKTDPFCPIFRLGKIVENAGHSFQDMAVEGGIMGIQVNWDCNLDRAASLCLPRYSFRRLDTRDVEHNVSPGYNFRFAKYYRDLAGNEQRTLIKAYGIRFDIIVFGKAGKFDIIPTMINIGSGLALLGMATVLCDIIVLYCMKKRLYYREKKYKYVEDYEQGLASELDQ
The experiment in a line: Ca2+ flux assay h-P2X4. The note with it: for IC50: read-out: h-P2X4 IC50 ± SEM, Ca2+ flux, n = 3.
Procedure: as §5, §6
Measurement of Ca^2+ Flux
as §7

The next data set has as its target h-P2X5 (Homo sapiens, UniProt Q93086). The experiment in a line: Ca2+ flux assay h-P2X5. To be noted: read-out: h-P2X5 % Inhibition.
Data set [4] has as its target T2, h-P2X7. The experiment in a line: BzATP induced Ethidium Bromide dye-uptake assay (pore formation). Type of data set: cell-based. Also on record: expressed in transfected cells; host or cells: human 1321N1 astrocytoma cells. To be noted: for Emax at 20 µM: read-out: Emax % (at 20 μM inhibitor concentration), BzATP induced Ethidium Bromide dye uptake, 20 μM inhibitor concentration, BzATP without inhibitor = 100; for IC50: serial dilution curves, read-out: IC50 ± SEM, BzATP induced Ethidium Bromide dye uptake. From the text: This is a specific assay to access the activities of P2X7R. Prolong exposure of P2X7R leads to pore formation that results intake of large molecular weight dye through this pore. An inhibitor of P2X7R inhibits this pore formation that confirms the inhibitory potential of compounds.
e. Ethidium Bromide Dye-Uptake Assay for P2X7 Receptors: (Pore Formation)
Human astrocytoma 1321N1 cells stably expressing P2X7 receptors will be seeded in the black wall, clear bottom and poly-D-lysine coated 96 wells plate at a cell density of 20,000 cells/well. After 24 h of incubation, culture medium will be removed, and wash the cells with dye uptake buffer. Cells will be treated with ethidium bromide with the subsequent addition of different concentrations of Bz-ATP to 96 wells plate in triplicate format. […] For screening of P2X7 receptor antagonists, cells will be treated with different concentrations of test compounds for 15 min at 37° C. before the addition of Bz-ATP.

Data set [5] is described as follows: MTT cytotoxicity assay, human 1321N1 astrocytoma cell line. To be noted: human, 1321N1 astrocytoma cells, final concentration of 50 μM. It is filed as cell-based. The procedure:
as §1, §2, §3

A short description of data set [6]: MTT cytotoxicity assay, HeLa cell line. It is filed as cell-based. To be noted: human, HeLa cells, final concentration of 50 μM. The method, then:
as §1, §2, §3

Data set [7] is described as follows: MTT cytotoxicity assay, HEK-293 cell line. It is filed as cell-based. The note with it: human, HEK-293 cells, final concentration of 50 μM. The method, then: as §1, §2, §3
The target in data set [8] is T2, h-P2X7. The experiment in a line: Mode of receptor inhibition, BzATP dose-response curve at h-P2X7R. Type of data set: cell-based. Set-up: expressed in transfected cells; host or cells: human 1321N1 astrocytoma cells. The method, then: (§4) Different dilutions of compounds were administered to receptors expressed cell line.
Data set [9] deals with T3, h-P2X4. The experiment in a line: Mode of receptor inhibition, ATP dose-response curve at h-P2X4R. Type of data set: cell-based. Also on record: expressed in transfected cells; host or cells: human 1321N1 astrocytoma cells. The procedure:
as §4

Chain of h-P2X5 (Q93086 whole entry): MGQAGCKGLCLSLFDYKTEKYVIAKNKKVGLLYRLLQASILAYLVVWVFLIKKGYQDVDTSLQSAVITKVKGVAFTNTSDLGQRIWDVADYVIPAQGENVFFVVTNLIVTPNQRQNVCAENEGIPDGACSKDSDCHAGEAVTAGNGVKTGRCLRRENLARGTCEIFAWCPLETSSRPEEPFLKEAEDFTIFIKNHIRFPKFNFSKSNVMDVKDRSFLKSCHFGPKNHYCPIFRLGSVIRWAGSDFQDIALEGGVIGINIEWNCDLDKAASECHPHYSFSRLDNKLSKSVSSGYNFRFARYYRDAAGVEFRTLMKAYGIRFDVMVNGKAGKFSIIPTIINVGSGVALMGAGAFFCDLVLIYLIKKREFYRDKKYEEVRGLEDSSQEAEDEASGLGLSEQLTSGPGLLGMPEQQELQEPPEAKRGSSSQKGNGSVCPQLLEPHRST
Procedure for h-P2X2: as §5, §6
Measurement of Ca^2+ Flux
as §7
Procedure for h-P2X5: as §5, §6
Measurement of Ca^2+ Flux
as §7

Usually IC50 stands for the concentration at which inhibition is half-maximal. With `Nc1c(S(=O)(=O)O)cc(Nc2ccc(Nc3nc(Cl)nc(Nc4cccc(S(=O)(=O)O)c4)n3)c(S(=O)(=O)O)c2)c2c1C(=O)c1ccccc1C2=O` [Reactive Blue 2, reference compound], the IC50 at h-P2X2 (read-out: h-P2X2 IC50 ± SEM, Ca2+ flux, n = 3) stood at 890 ± 410 nM; at h-P2X7 [1], 2790 ± 220 nM. Further, in data set [2], the “Human 1321N1 Astrocytoma Cell Line (% cytotoxicity)” value turned out to be 20.82%. For the same compound, the “HeLa Cell Line (% cytotoxicity)” value in the data set with HeLa cell line was determined as 14.47%. The “HEK-293 Cell Line (% cytotoxicity)” value with HEK-293 cell line stood at 39.89%.
A word on the inhibition: it is the share of the control response that was lost under treatment. With `O=C(NC(=S)Nc1cccnc1Cl)C12CC3CC(CC(C3)C1)C2` [If, N-((2-chloropyridin-3-yl)carbamothioyl)adamantane-1-carboxamide], the IC50 on h-P2X4 [3] was 1270 ± 110 nM; on h-P2X7 [4], 310 ± 70 nM; on h-P2X7 [1], 99 ± 70 nM. The figures for the inhibition at 50 µM on h-P2X5 and at h-P2X2 were 25.5% and 13.2%, respectively. In addition, the Emax at 20 µM at h-P2X7 [4] was 47%. Further, the values for the cytotoxicity at 24 h, 50 µM in data set [5], in data set [6] and in [7] were 11.4%, 5.21% and 4.95%, respectively.
Usually EC50 stands for the concentration that produces a half-maximal response. Turning to `Nc1ncnc2c1ncn2[C@@H]1O[C@H](COP(=O)(O)OP(=O)(O)OP(=O)(O)O)[C@@H](OC(=O)c2ccc(C(=O)c3ccccc3)cc2)[C@H]1O` [BzATP, reference compound], the EC50 on h-P2X7 [8] (BzATP without inhibitor, read-out: EC50 of BzATP induced response) is 7090 nM.
As to `Nc1ncnc2c1ncn2[C@@H]1O[C@H](COP(=O)(O)OP(=O)(O)OP(=O)(O)O)[C@@H](O)[C@H]1O` [ATP, reference compound], the EC50 on h-P2X4 [9] (ATP without inhibitor, read-out: EC50 of ATP induced response) amounted to 5450 nM.
On to `Cc1nc(N=Nc2ccc(S(=O)(=O)O)cc2S(=O)(=O)O)c(COP(=O)(O)O)c(C=O)c1O` [PPADS, reference compound], for which the “Human 1321N1 Astrocytoma Cell Line (% cytotoxicity)” value in [2] worked out at 19.02%. Besides, the “HeLa Cell Line (% cytotoxicity)” value with HeLa cell line turned out to be 17.92%. Further, the “HEK-293 Cell Line (% cytotoxicity)” value in the data set on HEK-293 cell line came out at 42.58%.
With `O=C(NC(=S)Nc1cccc2cccnc12)C12CC3CC(CC(C3)C1)C2` [Io, N-(quinolin-8-ylcarbamothioyl)adamantane-1-carboxamide], the figures for the inhibition at 50 µM on h-P2X4 [3] (read-out: h-P2X4 % Inhibition), at h-P2X5 and on h-P2X2 were 25.1%, 31.5% and 15.3%, respectively. Moreover, the “mechanism of receptor inhibition” value on h-P2X7 [8] (h-P2X7R expressed cell line, different dilutions of compound) is “negative allosteric modulators”. For the same compound, the Emax at 20 µM on h-P2X7 [4] came to 70%. Besides, the half-inhibitory concentration (IC50) on h-P2X7 [4] worked out at 136 ± 20 nM; on h-P2X7 [1], 73 ± 40 nM. The cytotoxicity at 24 h, 50 µM in data set [5] came to 9.12%; in [6] it was 6.22%; in data set [7], 17.6%.
In the case of `CC(C)c1ccc(NC(=S)NC(=O)C23CC4CC(CC(C4)C2)C3)c(Br)c1` [Ip, N-((2-bromo-4-isopropylphenyl)carbamothioyl)adamantane-1-carboxamide], on h-P2X4 [3], the IC50 was 40 ± 10 nM. Also, the inhibition at 50 µM on h-P2X5 was 12.4%; on h-P2X2, 30.2%; at h-P2X7 [1] (read-out: h-P2X7 % Inhibition), 42.5%. In addition, at h-P2X4 [9] (h-P2X4R expressed cell line, different dilutions of compound), the “mechanism of receptor inhibition” value was “negative allosteric modulators”. The values for the cytotoxicity at 24 h, 50 µM in [5], in data set [6] and in [7] were 19.7%, 23.5% and 20.6%, respectively.
In the case of `CC(C)c1cc(Br)c(NC(=O)Nc2cccnc2)c(Br)c1` [BX-430, reference compound], the “Human 1321N1 Astrocytoma Cell Line (% cytotoxicity)” value in data set [2] came to 20.21%. In addition, in the data set on HeLa cell line, the “HeLa Cell Line (% cytotoxicity)” value is recorded as 9.12%. For the same compound, the “HEK-293 Cell Line (% cytotoxicity)” value in the data set with HEK-293 cell line was determined as 2.85%.
